In patent publication US20220332742A1, “Naringin-Loaded Metal Organic Frameworks” (Colgate-Palmolive Company, priority 2021, published 2022):
In brackets after ≈: the same amount, converted by molar mass.

Key:
Type in all cases: cell-based
[1] = test system: H1299 mouse lung tumor cells; assay: Tumor cell cytotoxicity, ATP viability assay (ATPLite 1-step Luminescence)
Method: The ability of naringin-loaded MIL-101(Fe) to kill H1299 […] lung tumor cells is evaluated using the ATP viability assay (Perkin Elmer, ATPLite 1-step Luminescence Assay). H1299 cells are seeded at 5000 cells/mL in white 96-well plates and incubated with either MIL-101(Fe), naringin or naringin-loaded MIL-101(Fe) (Example 1(d) at the following concentrations: 0, 3.125, 25, 50, 100, and 200 μg/mL. The ATP kit solution is then added to each well, and a 96-well microplate reader is used to measure total luminescence. Cell viability is calculated as a percentage of the luminescence of the untreated control. The results are shown in the following table: […]

TNF-alpha = TNF-alpha release from EL4 T cells, ELISA; conditions: 24 hours
Method: (§1) The ability of naringin-loaded MIL-101(Fe) to promote the release of IL-2 and TNF-alpha from EL4 T cells is evaluated. Enzyme-linked immunosorbent assay (ELISA) is performed according to the manufacturer specifications. Briefly, EL-4 T-cells are incubated in 96-well plates at an initial density of 8000 cells/well. The cell cultures are treated with either MIL-101(Fe), naringin or naringin-loaded MIL-101(Fe) (Example 1(d)) at the following concentrations in PBS: 0, 100, and 200 μg/mL. The plates are incubated for 24 hours at 37° C. in 5% CO2 atmosphere. The solutions are then transferred to a V-shaped 96 well plate and centrifuged at 500 g for 5 minutes. The supernatant solutions are then collected and the recommend ELISA protocol is performed. Absorbance at 450 and 540 nm is measured using a 96-well plate reader, and the results are compared to cytokine standard solutions.

IL-2 = IL-2 release from EL4 T cells, ELISA; conditions: 24 hours
Method: as §1

[2] = EL4 T cell viability, ATP viability assay (ATPLite 1-step Luminescence); conditions: mouse, EL4 T cells
Method: The ability of naringin-loaded MIL-101(Fe) to promote the viability of EL4 T cells is evaluated using the ATP viability assay (Perkin Elmer, ATPLite 1-step Luminescence Assay). EL4 T cells are seeded at 8000 cells/mL in white 96-well plates and incubated with either naringin or naringin-loaded MIL-101(Fe) (Example 1(d)) at the following concentrations: 3.125, 6.25, 12.5, 25, 50, 100, and 200 μg/mL. The ATP kit solution is then added to each well, and a 96-well microplate reader is used to measure total luminescence. Cell viability is calculated as a percentage of the luminescence of the untreated control.

Bacillus subtilis = assay: Antibacterial activity, MIC by micro-dilution method; conditions: TSB, lowest concentration that completely inhibits growth
Method: The antibacterial activity of the prepared MOF complexes is determined against Bacillus subtilis, by calculating minimal inhibitory concentration (MIC) using the micro-dilution method. Briefly, test samples are diluted with TSB solution to 2 mg/mL, and then further serial dilutions are prepared in TSB. Bacterial cultures are incubated in TSB for 16 hours, then 100 microliter suspensions are transferred to 4 mL of fresh medium and incubated for another 6 hours in order to reach mid-log phase stage. Then, the bacteria are diluted to provide 10^6 colony-forming units per mL (CFU/mL) based on OD600 measurement. […] The tested products are the naringin-loaded MOF prepared from 0.5 mg/ml naringin in ethanol, 0.5 mg/mL naringin in 1:4 ethanol/water solution, and 1 mg/mL naringin in 1:2.2 ethanol/water solution.

[3] = 3.125 µg/mL of agent, % of untreated control

What does the source list for `C[C@@H]1O[C@@H](O[C@H]2[C@H](Oc3cc(O)c4c(c3)O[C@H](c3ccc(O)cc3)CC4=O)O[C@H](CO)[C@@H](O)[C@@H]2O)[C@H](O)[C@H](O)[C@H]1O` [Naringin]?
Cell viability (%) [1, 3]: 85.97%; Cell viability (%) ([1]; 25 µg/mL of agent): 73.26%; Cell viability (%) ([1]; 50 µg/mL of agent): 80.15%; Cell viability (%) ([1]; 100 µg/mL of agent): 87.10%; Cell viability (%) ([1]; 200 µg/mL of agent): 83.23%; TNF-alpha concentration (TNF-alpha; 100 µg/mL of agent): 10.64 pg/mL; TNF-alpha concentration (TNF-alpha; 200 µg/mL of agent): 9.92 pg/mL; IL-2 concentration (IL-2; 100 µg/mL of agent): 15.22 pg/mL; IL-2 concentration (IL-2; 200 µg/mL of agent): 16.49 pg/mL; viability at 3.125 µg/mL [2, 3]: 77%; viability at 6.25 µg/mL ([2]; 6.25 µg/mL of agent): 75.8%; viability at 12.5 µg/mL ([2]; 12.5 µg/mL of agent): 72.1%; viability at 25 µg/mL ([2]; 25 µg/mL of agent): 67%; viability at 50 µg/mL ([2]; 50 µg/mL of agent): 74.9%; viability at 100 µg/mL ([2]; 100 µg/mL of agent): 80.3%; viability at 200 µg/mL ([2]; 200 µg/mL of agent): 84.7%; MIC (Bacillus subtilis): 5000 µg/mL (≈ 8.61 mM)
